Source: patent publication US10023570B2 (Array BioPharma, Inc., priority 2015, dated 2018)
Like-named read-outs stand apart in the source and are kept apart here.

Legend:
[1] = biological target: Kif5b-RET fusion protein in HEK-293 cells (Homo sapiens, UniProt P07949); test: cell-based
[2] = biological target: human KDR protein in HEK-293 cells (Homo sapiens (Human), UniProt P35968); test: KDR Cell Assay (phospho-KDR in HEK-293 cells expressing inducible KDR); assay type: cell-based; conditions: pKDR Cell HEK 10% FBS IC50, HEK-293 cells expressing inducible KDR, VEGF stimulated
Summary of the method: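 HEK-293 cells with inducible human KDR were treated with compound for 1 h in DMEM (0.25% DMSO final), then lysed. Phospho-KDR was quantified by Meso Scale immunoassay, expressed as percent of control, and IC50 taken where a 4-parameter logistic fit crossed 50 POC.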

[3] = biological target: N-terminal GST tagged recombinant human RET cytoplasmic domain (aa 658-end), wild type RET kinase (Homo sapiens (Human), UniProt P07949); test: RET Enzyme Assay (HTRF KinEASE-TK), wild type RET; assay type: biochemical
[4] = HEK-293 cells expressing Kif5b-RET, read-out: KIF5B-RET pTYR1062 Cell IC50

human KDR protein in HEK-293 cells, sequence (P35968 20-1356): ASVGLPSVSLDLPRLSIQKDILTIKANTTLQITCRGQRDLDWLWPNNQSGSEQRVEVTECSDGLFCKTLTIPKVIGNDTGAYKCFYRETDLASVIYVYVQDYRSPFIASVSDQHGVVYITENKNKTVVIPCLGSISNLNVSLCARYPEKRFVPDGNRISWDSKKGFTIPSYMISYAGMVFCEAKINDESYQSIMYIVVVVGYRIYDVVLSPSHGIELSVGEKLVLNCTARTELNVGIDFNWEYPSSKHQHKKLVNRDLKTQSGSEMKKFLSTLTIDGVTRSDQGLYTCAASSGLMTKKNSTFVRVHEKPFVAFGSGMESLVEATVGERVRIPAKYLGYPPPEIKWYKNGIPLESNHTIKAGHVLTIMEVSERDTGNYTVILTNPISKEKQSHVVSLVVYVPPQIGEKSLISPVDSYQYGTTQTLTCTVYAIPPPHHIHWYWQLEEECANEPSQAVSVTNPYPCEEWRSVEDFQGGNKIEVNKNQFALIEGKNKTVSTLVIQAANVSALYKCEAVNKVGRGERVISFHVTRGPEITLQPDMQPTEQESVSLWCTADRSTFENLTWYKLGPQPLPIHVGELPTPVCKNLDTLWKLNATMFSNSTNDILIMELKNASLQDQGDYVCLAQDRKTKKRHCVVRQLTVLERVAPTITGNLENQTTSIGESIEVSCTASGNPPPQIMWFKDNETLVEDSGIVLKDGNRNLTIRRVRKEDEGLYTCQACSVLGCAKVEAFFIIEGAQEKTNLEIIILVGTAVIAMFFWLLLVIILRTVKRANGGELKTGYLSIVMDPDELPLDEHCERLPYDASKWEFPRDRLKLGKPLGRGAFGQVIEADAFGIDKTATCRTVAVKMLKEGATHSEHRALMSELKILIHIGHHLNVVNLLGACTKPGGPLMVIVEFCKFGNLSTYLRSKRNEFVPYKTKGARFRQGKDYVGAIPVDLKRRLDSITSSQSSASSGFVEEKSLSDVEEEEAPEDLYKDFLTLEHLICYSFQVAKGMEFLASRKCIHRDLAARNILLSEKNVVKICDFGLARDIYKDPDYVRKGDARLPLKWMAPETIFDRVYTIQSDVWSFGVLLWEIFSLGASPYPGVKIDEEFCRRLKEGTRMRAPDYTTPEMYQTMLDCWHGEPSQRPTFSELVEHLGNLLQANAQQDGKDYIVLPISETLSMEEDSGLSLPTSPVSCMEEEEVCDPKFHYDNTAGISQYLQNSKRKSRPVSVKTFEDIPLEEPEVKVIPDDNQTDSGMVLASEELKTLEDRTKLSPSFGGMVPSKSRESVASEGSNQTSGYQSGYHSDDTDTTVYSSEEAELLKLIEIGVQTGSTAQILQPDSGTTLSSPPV
Kif5b-RET fusion protein in HEK-293 cells, sequence (P07949 29-1114 limits assumed): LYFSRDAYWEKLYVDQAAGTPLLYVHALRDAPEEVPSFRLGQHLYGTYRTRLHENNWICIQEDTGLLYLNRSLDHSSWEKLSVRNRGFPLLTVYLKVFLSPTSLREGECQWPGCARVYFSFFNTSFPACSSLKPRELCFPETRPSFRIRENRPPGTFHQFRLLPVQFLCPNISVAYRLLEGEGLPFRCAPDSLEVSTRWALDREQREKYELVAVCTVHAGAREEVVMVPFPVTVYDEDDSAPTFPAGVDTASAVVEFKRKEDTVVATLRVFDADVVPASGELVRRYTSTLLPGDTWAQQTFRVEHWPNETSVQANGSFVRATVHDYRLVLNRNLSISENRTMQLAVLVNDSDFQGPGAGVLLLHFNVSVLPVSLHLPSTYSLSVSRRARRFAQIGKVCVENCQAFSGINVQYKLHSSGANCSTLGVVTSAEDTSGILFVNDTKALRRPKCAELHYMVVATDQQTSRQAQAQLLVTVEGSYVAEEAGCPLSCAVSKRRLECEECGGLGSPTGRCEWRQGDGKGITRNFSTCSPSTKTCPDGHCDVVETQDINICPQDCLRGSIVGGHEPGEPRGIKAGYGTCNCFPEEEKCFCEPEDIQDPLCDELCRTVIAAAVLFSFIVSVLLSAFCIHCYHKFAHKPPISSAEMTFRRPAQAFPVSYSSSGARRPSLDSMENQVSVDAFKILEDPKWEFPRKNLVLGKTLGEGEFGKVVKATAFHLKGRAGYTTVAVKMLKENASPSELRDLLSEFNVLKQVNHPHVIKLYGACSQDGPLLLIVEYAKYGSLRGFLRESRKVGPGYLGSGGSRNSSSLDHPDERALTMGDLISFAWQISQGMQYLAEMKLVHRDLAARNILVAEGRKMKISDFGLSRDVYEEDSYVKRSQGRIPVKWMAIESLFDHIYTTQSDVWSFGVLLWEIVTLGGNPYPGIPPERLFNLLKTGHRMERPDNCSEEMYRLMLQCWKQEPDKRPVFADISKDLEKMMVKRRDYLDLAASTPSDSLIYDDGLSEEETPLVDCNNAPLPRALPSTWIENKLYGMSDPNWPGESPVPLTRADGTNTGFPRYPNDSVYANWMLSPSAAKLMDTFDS
N-terminal GST tagged recombinant human RET cytoplasmic domain (aa 658-end), wild type RET kinase, sequence (P07949 658-1114): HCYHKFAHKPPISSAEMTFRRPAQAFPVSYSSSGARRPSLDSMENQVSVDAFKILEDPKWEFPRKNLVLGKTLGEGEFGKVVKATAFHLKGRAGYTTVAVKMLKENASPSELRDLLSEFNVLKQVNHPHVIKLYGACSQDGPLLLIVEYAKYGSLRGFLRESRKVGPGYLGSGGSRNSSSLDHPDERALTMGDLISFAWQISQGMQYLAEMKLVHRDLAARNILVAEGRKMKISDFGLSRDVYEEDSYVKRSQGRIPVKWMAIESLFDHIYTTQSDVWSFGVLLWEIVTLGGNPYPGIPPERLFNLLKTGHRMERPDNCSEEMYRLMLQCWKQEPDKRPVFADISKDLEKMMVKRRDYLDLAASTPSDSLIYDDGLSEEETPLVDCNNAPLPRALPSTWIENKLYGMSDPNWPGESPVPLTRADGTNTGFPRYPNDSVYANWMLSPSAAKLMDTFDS

Row | Structure (SMILES) | IC50 [1] [nM] | IC50 [2] [nM] | IC50 ([3]; wild type RET, 1 mM ATP) [nM] | IC50 [1, 4] [nM] | IC50 [3] [nM]
1 | Cn1cc(-c2cc(-c3ccc(N4CCN(CCNC(=O)OC(C)(C)C)CC4)nc3)c3c(C#N)cnn3c2)cn1 [Example 506, tert-butyl (2-(4-(5-(3-cyano-6-(1-methyl-1H-pyrazol-4-yl)pyrazolo[1,5-a]pyridin-4-yl)pyridin-2-yl)piperazin-1-yl)ethyl)carbamate] | 6.5 | 212 | 31.3 | – | –
2 | Cn1cc(-c2cc(-c3ccc(N4CCC(O)(C(F)(F)F)CC4)nc3)c3c(C#N)cnn3c2)cn1 [Example 510, 4-(6-(4-hydroxy-4-(trifluoromethyl)piperidin-1-yl)pyridin-3-yl)-6-(1-methyl-1H-pyrazol-4-yl)pyrazolo[1,5-a]pyridine-3-carbonitrile 2,2,2-trifluoroacetate] | – | 323 | – | 9.6 | 6.7
3 | CC(C)N(CCO)C(=O)C1CCN(c2ccc(-c3cc(-c4cnn(C)c4)cn4ncc(C#N)c34)cn2)CC1 [Example 561, 1-(5-(3-cyano-6-(1-methyl-1H-pyrazol-4-yl)pyrazolo[1,5-a]pyridin-4-yl)pyridin-2-yl)-N-(2-hydroxyethyl)-N-isopropylpiperidine-4-carboxamide 2,2,2-trifluoroacetate] | 37.5 | 1730 | 23.8 | – | –
4 | CONC(=O)C1CCN(c2ccc(-c3cc(-c4cnn(C)c4)cn4ncc(C#N)c34)cn2)CC1 [Example 564, 1-(5-(3-cyano-6-(1-methyl-1H-pyrazol-4-yl)pyrazolo[1,5-a]pyridin-4-yl)pyridin-2-yl)-N-methoxypiperidine-4-carboxamide] | – | 740 | 6.4 | 26.2 | –
5 | Cn1cc(-c2cc(-c3ccc(N4CCC(C(=O)NOC(C)(C)C)CC4)nc3)c3c(C#N)cnn3c2)cn1 [Example 565, N-(tert-butoxy)-1-(5-(3-cyano-6-(1-methyl-1H-pyrazol-4-yl)pyrazolo[1,5-a]pyridin-4-yl)pyridin-2-yl)piperidine-4-carboxamide] | – | 540 | 6.4 | 10.3 | –
6 | Cn1cc(-c2cc(-c3ccc(N4CCC(S(C)(=O)=O)CC4)nc3)c3c(C#N)cnn3c2)cn1 [Example 567, 6-(1-methyl-1H-pyrazol-4-yl)-4-(6-(4-(methylsulfonyl)piperidin-1-yl)pyridin-3-yl)pyrazolo[1,5-a]pyridine-3-carbonitrile] | 4.9 | 198 | 3.1 | – | –
7 | CC(C)NS(=O)(=O)C1CCN(c2ccc(-c3cc(-c4cnn(C)c4)cn4ncc(C#N)c34)cn2)CC1 [Example 569, 1-(5-(3-cyano-6-(1-methyl-1H-pyrazol-4-yl)pyrazolo[1,5-a]pyridin-4-yl)pyridin-2-yl)-N-isopropylpiperidine-4-sulfonamide] | – | 2.2 | 6.2 | 2.8 | –
8 | N#Cc1cnn2cc(-c3cnn(C(F)F)c3)cc(-c3ccc(N4CCN(Cc5ccccn5)CC4)nc3)c12 [Example 586, 6-(1-(difluoromethyl)-1H-pyrazol-4-yl)-4-(6-(4-(pyridine-2-ylmethyl)piperazin-1-yl)pyridin-3-yl)pyrazolo[1,5-a]pyridine-3-carbonitrile] | – | ≥ 5000 | 5.2 | 15.6 | –
9 | N#Cc1cnn2cc(-c3cn[nH]c3)cc(-c3ccc(N4CCN(Cc5ccccc5)CC4)nc3)c12 [Example 591, 4-(6-(4-benzylpiperazin-1-yl)pyridin-3-yl)-6-(1H-pyrazol-4-yl)pyrazolo[1,5-a]pyridine-3-carbonitrile] | – | 1490 | 5.7 | 4.1 | –
10 | C[C@@H](CO)Cn1cc(-c2cc(-c3ccc(N4CCN(Cc5ccccc5)CC4)nc3)c3c(C#N)cnn3c2)cn1 [Example 592, (R)-4-(6-(4-benzylpiperazin-1-yl)pyridin-3-yl)-6-(1-(3-hydroxy-2-methylpropyl)-1H-pyrazol-4-yl)pyrazolo[1,5-a]pyridine-3-carbonitrile] | – | 283 | 16.1 | 17.4 | –
11 | C[C@H](CO)Cn1cc(-c2cc(-c3ccc(N4CCN(Cc5ccccc5)CC4)nc3)c3c(C#N)cnn3c2)cn1 [Example 593, (S)-4-(6-(4-benzylpiperazin-1-yl)pyridine-3-yl)-6-(1-(3-hydroxy-2-methylpropyl)-1H-pyrazol-4-yl)pyrazolo[1,5-a]pyridine-3-carbonitrile] | – | 154 | 13.3 | 12.4 | –
12 | CCC1(C(=O)NC(C)C)CCN(c2ccc(-c3cc(-c4cnn(C)c4C)cn4ncc(C#N)c34)cn2)CC1 [Example 597, 1-(5-(3-cyano-6-(1,5-dimethyl-1H-pyrazol-4-yl)pyrazolo[1,5-a]pyridin-4-yl)pyridin-2-yl)-4-ethyl-N-isopropylpiperidine-4-carboxamide] | – | 830 | 34 | 39.7 | –
13 | CCC1(C(=O)NC(C)C)CCN(c2ccc(-c3cc(-c4cn(C)nc4C)cn4ncc(C#N)c34)cn2)CC1 [Example 599, 1-(5-(3-cyano-6-(1,3-dimethyl-1H-pyrazol-4-yl)pyrazolo[1,5-a]pyridin-4-yl)pyridin-2-yl)-4-ethyl-N-isopropylpiperidine-4-carboxamide] | – | 4860 | 27.6 | 16.5 | –
14 | CCn1cc(-c2cc(-c3ccc(N4CCN(Cc5ccccc5)CC4)nc3)c3c(C#N)cnn3c2)c(C)n1 [Example 609, 4-(6-(4-benzylpiperazin-1-yl)pyridin-3-yl)-6-(1-ethyl-3-methyl-1H-pyrazol-4-yl)pyrazolo[1,5-a]pyridine-3-carbonitrile] | 31.5 | 1980 | 16.5 | – | –
15 | CCc1nn(C)cc1-c1cc(-c2ccc(N3CCN(Cc4ccccc4)CC3)nc2)c2c(C#N)cnn2c1 [Example 610, 4-(6-(4-benzylpiperazin-1-yl)pyridin-3-yl)-6-(3-ethyl-1-methyl-1H-pyrazol-4-yl)pyrazolo[1,5-a]pyridine-3-carbonitrile] | – | 4440 | 48.1 | 109 | –
16 | CC(C)n1cc(-c2cc(-c3ccc(N4CCN(Cc5ccccc5)CC4)nc3)c3c(C#N)cnn3c2)cn1 [Example 611, 4-(6-(4-benzylpiperazin-1-yl)pyridin-3-yl)-6-(1-isopropyl-1H-pyrazol-4-yl)pyrazolo[1,5-a]pyridine-3-carbonitrile] | 2.5 | 298 | 11.9 | – | –
17 | CC(C)Cn1cc(-c2cc(-c3ccc(N4CCN(Cc5ccccc5)CC4)nc3)c3c(C#N)cnn3c2)cn1 [Example 612, 4-(6-(4-benzylpiperazin-1-yl)pyridin-3-yl)-6-(1-isobutyl-1H-pyrazol-4-yl)pyrazolo[1,5-a]pyridine-3-carbonitrile] | – | 431 | 38.2 | 5.2 | –
18 | Cc1nn(C(C)C)cc1-c1cc(-c2ccc(N3CCN(Cc4ccccc4)CC3)nc2)c2c(C#N)cnn2c1 [Example 614, 4-(6-(4-benzylpiperazin-1-yl)pyridin-3-yl)-6-(1-isopropyl-3-methyl-1H-pyrazol-4-yl)pyrazolo[1,5-a]pyridine-3-carbonitrile] | 17 | 2300 | 22.2 | – | –
19 | CC(C)CC(=O)N1CCN(c2ccc(-c3cc(-c4cnn(C)c4)cn4ncc(Cl)c34)cn2)CC1 [Example 646, 1-(4-(5-(3-chloro-6-(1-methyl-1H-pyrazol-4-yl)pyrazolo[1,5-a]pyridin-4-yl)pyridin-2-yl)piperazin-1-yl)-3-methylbutan-1-one] | – | 1960 | 15.6 | 45.7 | –
20 | COc1ccc(CN2CCN(c3ccc(-c4cc(-c5cnn(C[C@@H](C)O)c5)cn5ncc(C#N)c45)cn3)CC2)cn1 [Example 700, (R)-6-(1-(2-hydroxypropyl)-1H-pyrazol-4-yl)-4-(6-(4-((6-methoxypyridin-3-yl)methyl)piperazin-1-yl)pyridin-3-yl)pyrazolo[5-a]pyridine-3-carbonitrile] | – | 347 | 16.8 | 5.3 | –
